# Active and inactive are the calls of the source.
# How the values were obtained:
# [1] = inhibitors of intracellular T. cruzi replication, confirmation, NIH3T3 host cells, beta-gal luminescence (AID 2044); assay type: functional, cell-based;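 note: intracellular parasites grown in NIH/3T3 mouse fibroblasts as host cells; luminescent beta-galactosidase reporter signal from transgenic T. cruzi replicating inside host cells; inhibitors lower the luminescence signal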
# [2] = ZM109 Env clade C HIV-1 fusion inhibitors, dose response, HeLa effector, CEM target cells, luciferase, cherry-pick (AID 652058); assay type: functional, cell-based
# [3] = inhibitors of HIV Env-driven cell fusion, dose response, cherry-pick (AID 652057); assay type: functional, cell-based
# [4] = NIH-3T3 fibroblast cytotoxicity, dose response, cytotoxicity control, cell-based, fluorescence, Alamar Blue, secondary assay (AID 2327); assay type: functional;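 note: NIH-3T3 mouse fibroblasts cultured with fluconazole at 8 µg/mL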
# [5] = cytotoxicity toward NIH3T3 fibroblasts, dose response, counter-screen, cell-based, ATP luminescence, mouse fibroblasts (AID 2010); assay type: functional;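 note: cells exposed to compound for about 90 hours before reading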
# [6] = CEM21 lymphoblast cell cytotoxicity, dose response, cytotoxicity control for viral fusion inhibitor project, CellTiter-Glo luminescence, cherry-picked (AID 652042); assay type: functional, cell-based;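 note: potency for signal decrease meaning cytotoxicity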
# [7] = inhibitors of clade B AD8 Env fusion, dose response, cell-based, cherry-pick (AID 652062); assay type: functional;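 note: luciferase signal from cell-cell fusion driven by HIV-1 clade B AD8 Env; potency is for inhibitors of fusion seen as a drop in luminescence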
# [8] = off-target signal loss in HeLa-CEM21 co-culture – HeLa F-luc CTL cells, cherry-picked, counter-screen for HIV-1 Env fusion inhibitor project, dose response (AID 652040); assay type: functional, cell-based;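 note: potency for signal decrease marking cytotoxic or nonspecific inhibition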
# [9] = C. albicans growth with fluconazole, confirmation, fluorescence, retest (AID 2467); assay type: functional, cell-based
# [10] = molecular target: T1, Replicative DNA helicase DnaB (Mycobacterium tuberculosis, UniProt P9WMR3); test: DnaB intein splicing inhibitors, dose response, biochemical, cell-free fluorescence (AID 449749); assay type: functional
# T1 sequence (P9WMR3 whole entry): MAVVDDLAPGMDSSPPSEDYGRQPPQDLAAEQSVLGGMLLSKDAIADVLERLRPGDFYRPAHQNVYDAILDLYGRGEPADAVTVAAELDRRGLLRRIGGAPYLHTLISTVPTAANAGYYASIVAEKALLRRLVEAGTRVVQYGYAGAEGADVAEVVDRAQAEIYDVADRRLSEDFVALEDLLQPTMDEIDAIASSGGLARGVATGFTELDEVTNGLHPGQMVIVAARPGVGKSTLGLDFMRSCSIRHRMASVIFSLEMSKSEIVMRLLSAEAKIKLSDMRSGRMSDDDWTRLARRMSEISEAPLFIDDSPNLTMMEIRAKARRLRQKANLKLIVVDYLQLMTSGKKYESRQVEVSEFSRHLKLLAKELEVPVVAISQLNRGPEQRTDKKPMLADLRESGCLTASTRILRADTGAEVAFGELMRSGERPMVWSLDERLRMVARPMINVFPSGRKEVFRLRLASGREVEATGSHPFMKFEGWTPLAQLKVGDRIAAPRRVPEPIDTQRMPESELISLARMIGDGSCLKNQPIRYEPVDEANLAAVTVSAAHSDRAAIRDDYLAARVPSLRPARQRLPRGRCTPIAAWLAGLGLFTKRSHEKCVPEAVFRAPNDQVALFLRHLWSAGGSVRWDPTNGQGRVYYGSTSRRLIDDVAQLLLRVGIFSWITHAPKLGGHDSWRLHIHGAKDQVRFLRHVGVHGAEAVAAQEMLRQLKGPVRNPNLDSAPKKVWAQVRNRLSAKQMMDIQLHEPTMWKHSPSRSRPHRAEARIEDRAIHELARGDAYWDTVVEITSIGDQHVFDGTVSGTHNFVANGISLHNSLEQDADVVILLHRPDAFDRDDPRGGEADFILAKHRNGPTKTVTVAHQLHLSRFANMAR
# [11] = molecular target: ATP-binding cassette sub-family B member 6 (Homo sapiens, UniProt Q9NP58); test: ABCB6 transporter inhibitors, dose response, K562-ABCB6 cells, flow cytometry, cherry pick 1 (AID 623955); assay type: functional; settings: read-out: EC50_MICROM
# Protein RecA = molecular target: T2, Protein RecA (Mycobacterium tuberculosis, UniProt P9WHJ3); test: Fluorescence Cell-Free Homogeneous Dose Retest to Identify Inhibitors of RecA-Intein Splicing Activity. [Related pubchem assays (depositor defined):AID2097, AID2223, AID489010, AID492950]; assay type: functional
# T2 sequence (P9WHJ3 whole entry): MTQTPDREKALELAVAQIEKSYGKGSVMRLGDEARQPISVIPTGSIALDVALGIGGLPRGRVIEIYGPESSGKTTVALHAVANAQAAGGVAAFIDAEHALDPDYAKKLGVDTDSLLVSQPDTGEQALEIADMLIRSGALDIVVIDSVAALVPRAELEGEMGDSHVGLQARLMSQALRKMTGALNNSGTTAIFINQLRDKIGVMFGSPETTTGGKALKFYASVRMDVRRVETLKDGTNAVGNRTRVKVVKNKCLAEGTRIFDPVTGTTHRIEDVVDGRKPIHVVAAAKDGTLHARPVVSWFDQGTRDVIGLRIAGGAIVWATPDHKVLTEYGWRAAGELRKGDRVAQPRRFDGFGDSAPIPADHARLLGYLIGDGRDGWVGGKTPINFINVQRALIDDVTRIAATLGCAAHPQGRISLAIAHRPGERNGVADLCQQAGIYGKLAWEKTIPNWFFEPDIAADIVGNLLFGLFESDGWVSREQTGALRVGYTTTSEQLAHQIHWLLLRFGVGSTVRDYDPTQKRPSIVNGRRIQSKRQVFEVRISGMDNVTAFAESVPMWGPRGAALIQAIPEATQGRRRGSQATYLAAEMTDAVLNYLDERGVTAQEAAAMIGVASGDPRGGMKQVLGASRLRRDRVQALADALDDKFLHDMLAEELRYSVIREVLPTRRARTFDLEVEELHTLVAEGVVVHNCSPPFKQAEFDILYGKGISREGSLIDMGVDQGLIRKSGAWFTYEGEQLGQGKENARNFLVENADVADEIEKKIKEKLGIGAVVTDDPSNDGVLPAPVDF
# [12] = molecular target: FAD-linked sulfhydryl oxidase ALR (Homo sapiens, UniProt P55789); test: inhibitors of human ALR sulfhydryl oxidase, dose response, biochemical, H2O2 detection, luminescence, cherry-pick (AID 493248)
# [13] = molecular target: Tyrosine-protein phosphatase non-receptor type 5 (Homo sapiens, UniProt P54829); test: STEP phosphatase inhibitors, confirmation, biochemical, fluorescence intensity, uHTS hits (AID 602372); assay type: functional; settings: read-out: IC50_Mean
# [14] = molecular target: Dual specificity protein phosphatase 3 (Homo sapiens, UniProt P51452); test: VHR phosphatase inhibition, dose response, selectivity assay for STEP inhibitor project, biochemical (AID 602374); assay type: functional; settings: read-out: IC50_Mean
# [15] = molecular target: Tyrosine-protein phosphatase non-receptor type 11 (Homo sapiens, UniProt Q06124); test: SHP2 phosphatase inhibition, dose response, selectivity assay for STEP inhibitor project, biochemical (AID 602367); assay type: functional; settings: read-out: IC50_Mean
# [16] = inhibitors of PGC1a acetylation in cells, dose response, cell-based, cherry-picked samples (AID 720514); assay type: functional;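 note: potency may reflect raised or lowered acetylation signal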
# [17] = molecular target: Heat shock protein HSP 90-alpha (Homo sapiens, UniProt P07900); assay type: functional, organism-based
# [18] = Luminescence Cell-Based Dose Response HTS to Identify Activators of Luciferase Translation or Activity in H4 […] Cells. [Related pubchem assays: 1829 (Project Summary), 1814 (Primary HTS)]; assay type: functional
# H4 = test: Luminescence Cell-Based Dose Response HTS to Identify Activators of 5'UTR Stem-Loop Driven Prion Protein mRNA Translation in H4 Neuroglioblastoma Cells. [Related pubchem assays: 1829 (Project Summary), 1814 (Primary HTS)]; assay type: functional; settings: Homo sapiens
# [19] = Fluorescence-based cell-based high throughput dose response assay for inhibitors of the interaction of nucleotide-binding oligomerization domain containing 2 (NOD2) and the receptor-interacting serine-threonine kinase 2 (RIPK2).; assay type: functional; settings: Homo sapiens
# [20] = Luminescence Cell-Based Dose Confirmation HTS to Identify Activators of 5'UTR Stem-Loop Driven Alpha-Synuclein mRNA Translation in H4 Neuroglioblastoma Cells. [Related pubchem assays: 1829 (Project Summary), 1814 (Primary HTS)]; assay type: functional
# [21] = molecular target: T3, Sentrin-specific protease 8 (Homo sapiens, UniProt Q96LD8); assay type: functional
# T3 sequence (Q96LD8 whole entry): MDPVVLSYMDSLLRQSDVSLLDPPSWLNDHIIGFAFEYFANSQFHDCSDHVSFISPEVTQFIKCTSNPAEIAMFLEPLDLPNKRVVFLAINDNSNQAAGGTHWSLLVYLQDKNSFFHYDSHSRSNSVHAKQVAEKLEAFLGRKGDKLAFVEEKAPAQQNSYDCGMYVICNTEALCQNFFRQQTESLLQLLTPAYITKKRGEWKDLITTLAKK
# [22] = molecular target: T3, Sentrin-specific protease 8; assay type: functional; remark: listed apart in the source
# Protein S100-A4 = Protein S100-A4 (Homo sapiens, UniProt P26447); test: S100A4-myosin IIA binding inhibitor potency, dose response, biochemical, fluorescence polarization, cherry-picked hits (AID 687001); assay type: functional
# Sequence of Protein S100-A4 (P26447 whole entry): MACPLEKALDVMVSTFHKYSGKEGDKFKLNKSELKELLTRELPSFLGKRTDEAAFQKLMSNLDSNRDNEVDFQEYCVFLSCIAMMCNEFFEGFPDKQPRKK
# Sequence of Dual specificity protein phosphatase 3 (P51452 whole entry): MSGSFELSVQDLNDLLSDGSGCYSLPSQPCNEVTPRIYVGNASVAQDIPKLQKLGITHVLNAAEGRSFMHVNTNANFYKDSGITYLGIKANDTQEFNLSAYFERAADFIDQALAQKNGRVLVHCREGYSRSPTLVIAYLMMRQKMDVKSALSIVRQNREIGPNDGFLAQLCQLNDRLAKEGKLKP
# Sequence of FAD-linked sulfhydryl oxidase ALR (P55789 whole entry): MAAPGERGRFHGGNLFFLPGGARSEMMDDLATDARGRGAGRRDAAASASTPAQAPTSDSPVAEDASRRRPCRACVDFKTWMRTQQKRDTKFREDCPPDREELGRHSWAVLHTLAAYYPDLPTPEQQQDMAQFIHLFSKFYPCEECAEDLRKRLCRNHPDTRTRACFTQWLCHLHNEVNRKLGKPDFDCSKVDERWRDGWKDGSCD
# Sequence of Tyrosine-protein phosphatase non-receptor type 5 (P54829 whole entry): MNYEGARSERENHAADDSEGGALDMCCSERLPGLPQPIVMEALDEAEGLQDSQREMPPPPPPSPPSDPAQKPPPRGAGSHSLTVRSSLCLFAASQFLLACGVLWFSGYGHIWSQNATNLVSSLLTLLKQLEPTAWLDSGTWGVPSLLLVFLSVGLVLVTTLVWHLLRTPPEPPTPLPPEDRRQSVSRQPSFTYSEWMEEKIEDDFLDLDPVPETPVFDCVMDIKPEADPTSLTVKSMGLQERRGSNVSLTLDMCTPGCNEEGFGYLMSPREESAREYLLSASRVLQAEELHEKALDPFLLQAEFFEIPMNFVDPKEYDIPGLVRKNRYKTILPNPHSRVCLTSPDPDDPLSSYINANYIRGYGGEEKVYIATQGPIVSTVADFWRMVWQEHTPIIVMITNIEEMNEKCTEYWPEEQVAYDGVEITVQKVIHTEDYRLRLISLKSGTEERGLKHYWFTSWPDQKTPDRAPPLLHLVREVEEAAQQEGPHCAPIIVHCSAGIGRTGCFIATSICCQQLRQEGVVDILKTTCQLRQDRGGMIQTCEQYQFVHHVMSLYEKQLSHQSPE
# Sequence of Tyrosine-protein phosphatase non-receptor type 11 (Q06124 whole entry): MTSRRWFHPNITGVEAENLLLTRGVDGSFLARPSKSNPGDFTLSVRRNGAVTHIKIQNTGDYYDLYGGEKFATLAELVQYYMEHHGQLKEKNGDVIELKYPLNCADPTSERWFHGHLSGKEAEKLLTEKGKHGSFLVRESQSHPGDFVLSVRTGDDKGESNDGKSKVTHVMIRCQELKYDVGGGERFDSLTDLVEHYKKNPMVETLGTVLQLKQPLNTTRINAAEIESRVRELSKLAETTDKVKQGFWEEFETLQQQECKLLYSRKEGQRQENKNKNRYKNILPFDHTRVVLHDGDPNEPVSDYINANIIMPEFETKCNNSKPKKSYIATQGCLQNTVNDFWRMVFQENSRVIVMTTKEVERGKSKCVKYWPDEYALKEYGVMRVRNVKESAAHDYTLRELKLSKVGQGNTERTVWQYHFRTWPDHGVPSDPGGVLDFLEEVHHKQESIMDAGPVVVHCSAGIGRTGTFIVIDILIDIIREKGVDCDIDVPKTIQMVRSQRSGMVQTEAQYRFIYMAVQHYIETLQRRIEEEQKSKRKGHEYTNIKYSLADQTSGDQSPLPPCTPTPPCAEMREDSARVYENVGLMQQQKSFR
# Sequence of ATP-binding cassette sub-family B member 6 (Q9NP58 whole entry): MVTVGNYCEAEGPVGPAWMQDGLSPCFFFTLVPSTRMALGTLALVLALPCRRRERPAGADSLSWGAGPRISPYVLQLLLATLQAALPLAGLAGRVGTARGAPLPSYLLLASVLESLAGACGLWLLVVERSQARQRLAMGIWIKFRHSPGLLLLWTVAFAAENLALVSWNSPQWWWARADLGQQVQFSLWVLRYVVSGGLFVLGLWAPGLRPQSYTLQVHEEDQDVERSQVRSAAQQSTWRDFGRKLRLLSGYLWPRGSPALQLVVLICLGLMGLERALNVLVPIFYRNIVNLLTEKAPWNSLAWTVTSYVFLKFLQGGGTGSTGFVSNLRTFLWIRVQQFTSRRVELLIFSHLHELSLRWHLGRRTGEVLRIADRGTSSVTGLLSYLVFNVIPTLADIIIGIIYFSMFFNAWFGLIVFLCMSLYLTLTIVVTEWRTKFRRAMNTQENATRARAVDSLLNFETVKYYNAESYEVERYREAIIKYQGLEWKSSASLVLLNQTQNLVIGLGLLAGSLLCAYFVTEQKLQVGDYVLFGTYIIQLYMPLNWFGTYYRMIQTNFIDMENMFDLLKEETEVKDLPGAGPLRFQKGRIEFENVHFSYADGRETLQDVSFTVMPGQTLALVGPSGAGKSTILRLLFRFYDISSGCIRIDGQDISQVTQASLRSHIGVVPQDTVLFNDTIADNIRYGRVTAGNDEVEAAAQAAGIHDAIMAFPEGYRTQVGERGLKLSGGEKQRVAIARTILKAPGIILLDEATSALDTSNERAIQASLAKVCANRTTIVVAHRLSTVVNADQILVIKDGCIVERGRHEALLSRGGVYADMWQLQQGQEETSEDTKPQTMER
compound,measurement,setting,value
O=C(COc1ccc(Cl)cc1Cl)N1CCCN(C(=O)COc2ccc(Cl)cc2Cl)CC1,EC50,[1],1.39 µM (active)
same,AC50,[2],3.44 µM (active)
same,AC50,[3],3.52 µM (active)
same,EC50,[4],> 150 µM (inactive)
same,EC50,[5],> 30 µM (not active)
same,AC50,[6],68.3 µM (active)
same,AC50,[7],3.24 µM (active)
same,AC50,[8],5.48 µM (active)
same,EC50,[9],2.18 µM (active)
Cc1cccc(CS(=O)(=O)c2ncc(Cl)c(C(=O)Nc3c(C)cccc3C)n2)c1,AC50,[10],4.28 µM (active)
same,EC50,[11],74.5 µM (active)
same,EC50,Protein RecA,4.66 µM (active)
same,AC50,[12],0.164 µM (active)
O=C(NC1CCCCCC1)C(=S)NC1CCCCC1,IC50,[13],56.9 µM (inactive)
same,IC50,[14],3.07 µM (active)
same,IC50,[15],9.88 µM (active)
O=c1oc(-c2ccccc2)cc(Cl)c1Cl,AC50,[16],11.2 µM (active)
same,AC50,[17],2.64 µM (active)
same,AC50,[10],10.5 µM (active)
same,EC50,[18],> 120 µM (not active)
same,EC50,H4,> 60 µM (not active)
same,EC50,Protein RecA,4.74 µM (active)
same,IC50,[19],1.15 µM (active)
same,EC50,[20],> 120 µM (not active)
COC(=O)CCCC1=CC2=CC(=O)C(C)(OC(=O)c3cccs3)C(=O)C2=CN1C1CCCC1 (configuration not stated),IC50,[21],7.97 µM (active)
same,IC50,[22],5.99 µM (active)
Cc1cc(C)c(S(=O)(=O)NCc2ccc3c(c2)cc(C)n3C)c(C)c1,AC50,Protein S100-A4,10.7 µM (active)

# — ChEMBL document CHEMBL1201862, “PubChem BioAssay data set” (2004)
